Laboratory results from paper PMC3353862.
≈ marks a conversion by molar mass, not a printed value.

Columns and labels:
[1] = system: E. coli modified with PMBN; test: Broth microdilution MIC testing; format: cell-based, Escherichia coli; details: for MIC E. coli +PMBP: E. coli modified with PMBN; for MIC: Escherichia coli, read-out: MIC E. coli +PMBP
[2] = system: bacterial protein synthesis (aminoacylation/translation system); test: aminoacylation/translation (A/T) assay; format: biochemical; details: A/T assay, Table 1; read-out: IC50
E. coli tolC mutants = test: Broth microdilution MIC testing; format: cell-based, Escherichia coli; details: for MIC E. coli tolC: E. coli tolC mutants; for MIC: Escherichia coli, read-out: MIC E. coli tolC
H. influenzae = test: Broth microdilution MIC testing; format: cell-based, Haemophilus influenzae; details: for MIC H. flu: H. influenzae; for MIC: Haemophilus influenzae, read-out: MIC H. flu
S. pneumoniae = test: Broth microdilution MIC testing; format: cell-based, Streptococcus pneumoniae; details: for MIC S. pneumo: S. pneumoniae; for MIC: Streptococcus pneumoniae, read-out: MIC S. pneumo
S. aureus = test: Broth microdilution MIC testing; format: cell-based, Staphylococcus aureus; details: for MIC: Staphylococcus aureus, read-out: MIC S. aureus
E. faecalis = test: Broth microdilution MIC testing; format: cell-based, Enterococcus faecalis; details: for MIC E. fae: E. faecalis; for MIC: Enterococcus faecalis, read-out: MIC E. fae
M. catarrhalis = test: Broth microdilution MIC testing; format: cell-based, Moraxella catarrhalis; details: for MIC: Moraxella catarrhalis

| SMILES | MIC E. coli +PMBP [1] | IC50 [2] | MIC E. coli tolC (E. coli tolC mutants) | MIC H. flu (H. influenzae) | MIC S. pneumo (S. pneumoniae) | MIC S. aureus (S. aureus) | MIC E. fae (E. faecalis) | MIC M. cat (M. catarrhalis) | MIC [1] | MIC (E. coli tolC mutants) | MIC (H. influenzae) | MIC (S. pneumoniae) | MIC (S. aureus) | MIC (E. faecalis) | MIC (M. catarrhalis) |
| --- | --- | --- | --- | --- | --- | --- | --- | --- | --- | --- | --- | --- | --- | --- | --- |
| COc1cc(OC)c(OC)cc1CN1CCc2nc(-c3ccccn3)[nH]c(=O)c2C1 [Compound 323226] | > 128 µg/mL | 8000 nM | > 128 µg/mL | > 128 µg/mL | > 128 µg/mL | > 128 µg/mL | > 128 µg/mL | 64 µg/mL (≈ 157 µM) |  |  |  |  |  |  |  |
| CN(C)Cc1cc(CN2CCc3nc(-c4ccccn4)[nH]c(=O)c3C2)ccc1O [Compound 323206] | > 128 µg/mL | > 300000 nM | > 128 µg/mL | > 128 µg/mL | > 128 µg/mL | > 128 µg/mL | > 128 µg/mL | > 128 µg/mL |  |  |  |  |  |  |  |
| COc1cc(Cl)cc(CN2CCc3nc(-c4ccccn4)[nH]c(=O)c3C2)c1OC [Compound 323203] | 16 µg/mL (≈ 38.8 µM) | 2000 nM | 8 µg/mL (≈ 19.4 µM) | 8 µg/mL (≈ 19.4 µM) | 4 µg/mL (≈ 9.69 µM) | 16 µg/mL (≈ 38.8 µM) | 64 µg/mL (≈ 155 µM) | 1 µg/mL (≈ 2.42 µM) |  |  |  |  |  |  |  |
| Oc1nc(-c2ccccn2)nc2c1CN(Cc1ccc(F)cc1)CC2 [Compound 321521] |  | 2400 nM |  |  |  |  |  |  | 64 µg/mL (≈ 190 µM) | 16 µg/mL (≈ 47.6 µM) | 4 µg/mL (≈ 11.9 µM) | 16 µg/mL (≈ 47.6 µM) | 128 µg/mL (≈ 381 µM) | 16 µg/mL (≈ 47.6 µM) | 0.5 µg/mL (≈ 1.49 µM) |
| Cc1cc2c(cc1CN1CCc3nc(-c4ccccn4)[nH]c(=O)c3C1)OCO2 [Compound 323207] | > 128 µg/mL | > 300000 nM | > 128 µg/mL | > 128 µg/mL | > 128 µg/mL | > 128 µg/mL | > 128 µg/mL | > 128 µg/mL |  |  |  |  |  |  |  |
| O=c1[nH]c(-c2ccccn2)nc2c1CN(Cc1c(F)cccc1F)CC2 [Compound 323198] | 64 µg/mL (≈ 181 µM) | 2700 nM | 32 µg/mL (≈ 90.3 µM) | 8 µg/mL (≈ 22.6 µM) | 16 µg/mL (≈ 45.2 µM) | > 128 µg/mL | > 128 µg/mL | 1 µg/mL (≈ 2.82 µM) |  |  |  |  |  |  |  |
| COc1ccccc1CN1CCc2nc(-c3ccccn3)nc(O)c2C1 [Compound 321527] |  | 1800 nM |  |  |  |  |  |  | > 128 µg/mL | 64 µg/mL (≈ 184 µM) | 16 µg/mL (≈ 45.9 µM) | 32 µg/mL (≈ 91.8 µM) | > 128 µg/mL | 64 µg/mL (≈ 184 µM) | 2 µg/mL (≈ 5.74 µM) |
| COc1cc(CN2CCc3nc(-c4ccccn4)[nH]c(=O)c3C2)cc2c1OCO2 [Compound 323205] | 64 µg/mL (≈ 163 µM) | > 300000 nM | 64 µg/mL (≈ 163 µM) | 16 µg/mL (≈ 40.8 µM) | 32 µg/mL (≈ 81.5 µM) | > 128 µg/mL | 128 µg/mL (≈ 326 µM) | 4 µg/mL (≈ 10.2 µM) |  |  |  |  |  |  |  |
| O=c1[nH]c(-c2ccccn2)nc2c1CN(Cc1cccc(O)c1O)CC2 [Compound 323196] | > 128 µg/mL | 1600 nM | > 128 µg/mL | > 128 µg/mL | > 128 µg/mL | > 128 µg/mL | 32 µg/mL (≈ 91.3 µM) | 128 µg/mL (≈ 365 µM) |  |  |  |  |  |  |  |
| CC(=O)Oc1ccc(CN2CCc3nc(-c4ccccn4)[nH]c(=O)c3C2)cc1 [Compound 323238] | > 128 µg/mL | 2100 nM | > 128 µg/mL | 32 µg/mL (≈ 85 µM) | > 128 µg/mL | > 128 µg/mL | > 128 µg/mL | 16 µg/mL (≈ 42.5 µM) |  |  |  |  |  |  |  |
| CCOc1ccc(CN2CCc3nc(-c4ccccn4)[nH]c(=O)c3C2)cc1Cn1ccnc1 [Compound 323239] | 128 µg/mL (≈ 289 µM) | 3000 nM | 64 µg/mL (≈ 145 µM) | 64 µg/mL (≈ 145 µM) | > 128 µg/mL | > 128 µg/mL | 64 µg/mL (≈ 145 µM) | 8 µg/mL (≈ 18.1 µM) |  |  |  |  |  |  |  |
| O=c1[nH]c(-c2ccccn2)nc2c1CN(Cc1ccc(Cl)cc1)CC2 [Compound 323216] | 8 µg/mL (≈ 22.7 µM) | 1100 nM | 8 µg/mL (≈ 22.7 µM) | 2 µg/mL (≈ 5.67 µM) | 4 µg/mL (≈ 11.3 µM) | 16 µg/mL (≈ 45.3 µM) | 32 µg/mL (≈ 90.7 µM) | ≤0.12 µg/mL |  |  |  |  |  |  |  |
| COc1ccc(CN2CCc3nc(-c4ccccn4)[nH]c(=O)c3C2)c(OC)c1O [Compound 323236] | > 128 µg/mL | 7800 nM | > 128 µg/mL | > 128 µg/mL | > 128 µg/mL | > 128 µg/mL | > 128 µg/mL | > 128 µg/mL |  |  |  |  |  |  |  |
